In PubChem BioAssay (NCI):
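How tested: cells in 96-well plates exposed to compound for 48 hours at five concentrations. At the GI50, growth is halved. At the TGI there is no net growth.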

Legend:
Assay in all cases: NCI-60 cell line screen, 48 h
786-0 renal = test system: 786-0 renal
A498 renal = test system: A498 renal
A549 NSCLC = test system: A549 NSCLC
ACHN renal = test system: ACHN renal
BT-549 breast = test system: BT-549 breast
CAKI-1 renal = test system: CAKI-1 renal
CCRF-CEM leukemia = test system: CCRF-CEM leukemia
COLO 205 colon = test system: COLO 205 colon
DU-145 prostate = test system: DU-145 prostate
EKVX NSCLC = test system: EKVX NSCLC
HCC-2998 colon = test system: HCC-2998 colon
HCT-116 colon = test system: HCT-116 colon
HCT-15 colon = test system: HCT-15 colon
HL-60(TB) leukemia = test system: HL-60(TB) leukemia
HOP-62 NSCLC = test system: HOP-62 NSCLC
HOP-92 NSCLC = test system: HOP-92 NSCLC
HS 578T breast = test system: HS 578T breast
HT29 colon = test system: HT29 colon
IGROV1 ovarian = test system: IGROV1 ovarian
K-562 leukemia = test system: K-562 leukemia
KM12 colon = test system: KM12 colon
LOX IMVI melanoma = test system: LOX IMVI melanoma
M14 melanoma = test system: M14 melanoma
MALME-3M melanoma = test system: MALME-3M melanoma
MCF7 breast = test system: MCF7 breast
MDA-MB-231 breast = test system: MDA-MB-231 breast
MDA-MB-435 = test system: MDA-MB-435
MDA-MB-468 breast = test system: MDA-MB-468 breast
MOLT-4 leukemia = test system: MOLT-4 leukemia

COc1cc2cc(C(=O)N3C[C@@H](CCl)c4c3cc(OC(=O)N(CCC(=O)N3CCN(C)CC3)C3CCCCC3)c3ccccc43)[nH]c2c(OC)c1OC showed a GI50 (786-0 renal) of 1730 nM, a TGI (786-0 renal) of 10100 nM and a GI50 (A498 renal) of 2770 nM. The TGI (A498 renal) was 5270 nM, the GI50 (A549 NSCLC) was 1990 nM and the TGI (A549 NSCLC) was > 100000 nM. It also gave a GI50 (ACHN renal) of 493 nM, a TGI (ACHN renal) of 10700 nM and a GI50 (BT-549 breast) of 1590 nM. For the same molecule, the TGI (BT-549 breast) was 4220 nM, the GI50 (CAKI-1 renal) was 1490 nM and the TGI (CAKI-1 renal) was 7650 nM. The GI50 (CCRF-CEM leukemia) was 993 nM, the TGI (CCRF-CEM leukemia) was 12100 nM and the GI50 (COLO 205 colon) was 1370 nM. The TGI (COLO 205 colon) was 2800 nM, the GI50 (DU-145 prostate) was 456 nM and the TGI (DU-145 prostate) was 4630 nM. For the same molecule, the GI50 (EKVX NSCLC) was 1950 nM, the TGI (EKVX NSCLC) was 5890 nM and the GI50 (HCC-2998 colon) was 1520 nM. The TGI (HCC-2998 colon) was 3480 nM, the GI50 (HCT-116 colon) was 1500 nM and the TGI (HCT-116 colon) was 9940 nM. It also gave a GI50 (HCT-15 colon) of 1730 nM, a TGI (HCT-15 colon) of 6710 nM and a GI50 (HL-60(TB) leukemia) of 751 nM. It also gave a TGI (HL-60(TB) leukemia) of 3730 nM, a GI50 (HOP-62 NSCLC) of 594 nM and a TGI (HOP-62 NSCLC) of 9110 nM. The GI50 (HOP-92 NSCLC) was 2500 nM, the TGI (HOP-92 NSCLC) was 9460 nM and the GI50 (HS 578T breast) was 2420 nM. The TGI (HS 578T breast) was 7110 nM, the GI50 (HT29 colon) was 1520 nM and the TGI (HT29 colon) was 4240 nM. For the same molecule, the GI50 (IGROV1 ovarian) was 2310 nM, the TGI (IGROV1 ovarian) was 7760 nM and the GI50 (K-562 leukemia) was 677 nM. The TGI (K-562 leukemia) was 20300 nM, the GI50 (KM12 colon) was 2070 nM and the TGI (KM12 colon) was 7250 nM. For the same molecule, the GI50 (LOX IMVI melanoma) was 1100 nM, the TGI (LOX IMVI melanoma) was 2760 nM and the GI50 (M14 melanoma) was 1520 nM. For the same molecule, the TGI (M14 melanoma) was 4240 nM, the GI50 (MALME-3M melanoma) was 1570 nM and the TGI (MALME-3M melanoma) was 3050 nM. It also gave a GI50 (MCF7 breast) of 318 nM, a TGI (MCF7 breast) of 2630 nM and a GI50 (MDA-MB-231 breast) of 3070 nM. For the same molecule, the TGI (MDA-MB-231 breast) was 8630 nM, the GI50 (MDA-MB-435) was 1780 nM and the TGI (MDA-MB-435) was 3650 nM. For the same molecule, the GI50 (MDA-MB-468 breast) was 688 nM, the TGI (MDA-MB-468 breast) was 2290 nM and the GI50 (MOLT-4 leukemia) was 594 nM. For the same molecule, the TGI (MOLT-4 leukemia) was 10100 nM.
